According to patent US12661410B2, “Compounds for targeted degradation of RET” (C4 Therapeutics, Inc., priority 2020, dated 2026):
Where a chain is given by its changes, count along the chain named.

How the values were obtained:
RET (658-1114) = target: T1, RET (658-1114) (Homo sapiens, UniProt P07949); assay: HiBiT-Degradation, RET wild-type degradation assay (Nano-Glo HiBiT Lytic), 293T.144 cells; type: cell-based
T1 construct: 658-1114; expressed in transfected cells; host or cells: 293T.144 (293T cells, generated in-house)
T1 sequence (P07949 658-1114): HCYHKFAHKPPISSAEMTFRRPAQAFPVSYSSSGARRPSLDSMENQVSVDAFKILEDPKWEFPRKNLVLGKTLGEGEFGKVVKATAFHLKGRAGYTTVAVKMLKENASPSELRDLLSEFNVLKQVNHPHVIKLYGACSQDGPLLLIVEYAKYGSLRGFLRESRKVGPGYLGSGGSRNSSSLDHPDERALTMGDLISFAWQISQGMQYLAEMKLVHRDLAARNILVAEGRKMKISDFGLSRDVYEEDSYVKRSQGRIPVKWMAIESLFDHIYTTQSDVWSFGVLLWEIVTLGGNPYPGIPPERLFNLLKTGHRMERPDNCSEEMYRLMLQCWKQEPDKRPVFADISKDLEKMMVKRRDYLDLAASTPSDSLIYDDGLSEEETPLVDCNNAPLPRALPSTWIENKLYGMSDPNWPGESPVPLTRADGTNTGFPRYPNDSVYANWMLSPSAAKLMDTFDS
From the text: (§1) Dulbecco's modified Eagle medium (DMEM) no-phenol red media and fetal bovine serum (FBS) were purchased from Gibco (Grand Island, NY, USA). Cell lines ectopically expressing wild-type or G810R RET kinase domain fused with a HiBiT tag were generated in-house (293T. 144 and 293T. 165, respectively). Cell culture flasks and 384-well microplates were acquired from VWR (Radnor, PA, USA). The Nano-Glo® HiBiT Lytic Assay System was purchased from Promega (Madison, WI, USA).
(§2) RET wild-type (WT) and G810R degradation were assessed using the Nano-Glo® HiBiT Lytic assay (Promega, Medison, WI, USA). To determine the effect of degraders on protein levels, cells were plated in 384-well plates and treated with compounds of interest in duplicates for 6 hours using an 11-point half-log dilution series, with the highest dose set at 10 μM. Cell lysis and addition of the Nano-Glo® HiBiT Lytic Assay reagents was then performed. Luminescence signal was measured using an EnVision™ Multimode plate reader (Perkin Elmer, Santa Clara, CA, USA). The half-maximal degradation concentration (DC50) and % remaining protein (Emax) was then derived from the dose-response curves.

RET(KD: 658-1114 G810R) = target: T2, RET(KD: 658-1114 G810R) (Homo sapiens, UniProt P07949, G810R); assay: HiBiT-Degradation, RET G810R degradation assay (Nano-Glo HiBiT Lytic), 293T.165 cells; type: cell-based; settings: for Emax / DC50: 6.0 hours; for Emax: % remaining protein, read-out: 293T.165 RET(KD: 658-1114 G810R) 6.0 hours (Emax); for DC50: half-maximal degradation concentration, read-out: 293T.165 RET(KD: 658-1114 G810R) 6.0 hours (DC50)
T2 construct: 658-1114; expressed in transfected cells; host or cells: 293T.165 (293T cells, generated in-house)
T2 sequence (P07949 658-1114 G810R): T1 sequence (P07949 658-1114) with G153R
From the text: as §1, §2

Row | Structure (SMILES) | 293T.144 RET (658-1114) 6.0 hours (IP) [nM] (RET (658-1114)) | Emax (RET (658-1114); 6.0 hours, % remaining protein, read-out: 293T.144 RET (658-1114) 6.0 hours (Emax)) [%] | DC50 (RET (658-1114); 6.0 hours, half-maximal degradation concentration, read-out: 293T.144 RET (658-1114) 6.0 hours (DC50)) [nM] | 293T.165 RET(KD: 658-1114 G810R) 6.0 hours (IP) [nM] (RET(KD: 658-1114 G810R)) | Emax (RET(KD: 658-1114 G810R)) [%] | DC50 (RET(KD: 658-1114 G810R)) [nM]
1 | COc1ccc(CN2C3CC2CN(c2ccc(-c4nc(-c5cnn([C@H]6CC[C@@H](N7CCC(c8cc9c(cc8F)c(N8CCC(=O)NC8=O)nn9C)C(F)(F)C7)CC6)c5)cn5ncc(C#N)c45)cn2)C3)cn1 (relative stereo) [Compound 200, 6-(1-((1s, 4s)-4-(4-(3-(2,4-Dioxotetrahydropyrimidin-1(2H)-yl)-5-fluoro-1-methyl-1H-indazol-6-yl)-3,3-difluoropiperidin-1-yl)cyclohexyl)-1H-pyrazol-4-yl)-4-(6-(6-((6-methoxypyridin-3-yl)methyl)-3,6-diazabicyclo[3.1.1]heptan-3-yl)pyridin-3-yl)pyrazolo[1,5-a]pyrazine-3-carbonitrile] | ++++ (<50 nM = ++++) | < 30 | < 50 | ++++ (<50 nM = ++++) | < 50 | < 50
2 | N#Cc1cnn2cc(-c3ccc(N4CCN(C(=O)CN5CCC(c6ccc(NC7CCC(=O)NC7=O)cc6)CC5)CC4)cc3)cc(-c3ccc(C4(CO)CCCCC4)nc3)c12 (stereo not shown) [Compound 21, 6-(4-(4-(2-(4-(4-((2,6-Dioxopiperidin-3-yl)amino)phenyl)piperidin-1-yl)acetyl)piperazin-1-yl)phenyl)-4-(6-(1-(hydroxymethyl)cyclohexyl)pyridin-3-yl)pyrazolo[1,5-a]pyridine-3-carbonitrile] | – | – | – | – | < 50 | < 1000
3 | CCC1(C(=O)NC(C)C)CCN(c2ccc(-c3cc(-c4cnc(N5CCN(C(=O)CN6CCC(c7ccc(NC8CCC(=O)NC8=O)cc7F)CC6)CC5)nc4)cn4ncc(C#N)c34)cn2)CC1 (stereo not shown) [Compound 37, 1-(5-(3-Cyano-6-(2-(4-(2-(4-(4-((2,6-dioxopiperidin-3-yl)amino)-2-fluorophenyl)piperidin-1-yl)acetyl)piperazin-1-yl)pyrimidin-5-yl)pyrazolo[1,5-a]pyridin-4-yl)pyridin-2-yl)-4-ethyl-N-isopropylpiperidine-4-carboxamide] | – | – | – | – | < 50 | < 1000
4 | CCC1(C(=O)N[C@H](C)C(F)(F)F)CCN(c2ccc(-c3cc(-c4cnn(C5CCN(C(=O)CN6CCC(c7ccc(NC8CCC(=O)NC8=O)cc7F)CC6)CC5)c4)cn4ncc(C#N)c34)cn2)CC1 (stereo partly drawn) [Compound 7, 1-[5-[3-cyano-6-[1-[1-[2-[4-[4-[(2,6-dioxo-3-piperidyl)amino]-2-fluoro-phenyl]-1-piperidyl]acetyl]-4-piperidyl]pyrazol-4-yl]pyrazolo[1,5-a]pyridin-4-yl]-2-pyridyl]-4-ethyl-N-[(1R)-2,2,2-trifluoro-1-methyl-ethyl]piperidine-4-carboxamide] | – | – | – | – | < 50 | < 1000
5 | CC(C)NC(=O)C1(C)CCN(c2ccc(-c3cc(-c4ccc(N5CCN(C(=O)CC6(O)CCN(c7ccc(CN8CCC(=O)NC8=O)cc7)CC6)CC5)cc4)cn4ncc(C#N)c34)cn2)CC1 [Compound 33, 1-[5-[3-cyano-6-[4-[4-[2-[1-[4-[(2,4-dioxohexahydropyrimidin-1-yl)methyl]phenyl]-4-hydroxy-4-piperidyl]acetyl]piperazin-1-yl]phenyl]pyrazolo[1,5-a]pyridin-4-yl]-2-pyridyl]-N-isopropyl-4-methyl-piperidine-4-carboxamide] | – | – | – | – | < 70 | > 1000
6 | CCC1(C(=O)NC(C)C)CCN(c2ccc(-c3cc(-c4ccc(N5CCN(C(=O)CN6CCC(c7ccc(C8CCC(=O)NC8=O)cc7)CC6)CC5)cc4)cn4ncc(C#N)c34)cn2)CC1 (stereo not shown) [Compound 29, 1-(5-(3-Cyano-6-(4-(4-(2-(4-(4-(2,6-dioxopiperidin-3-yl)phenyl)piperidin-1-yl)acetyl)piperazin-1-yl)phenyl)pyrazolo[1,5-a]pyridin-4-yl)pyridin-2-yl)-4-ethyl-N-isopropylpiperidine-4-carboxamide] | – | – | – | – | < 50 | < 1000
